Measurements as given in patent US20250092043A1, “Kinase Inhibitors and Degraders” (Incyte Corporation, priority 2023, published 2025).

Biological target: T1, JAK2 (Homo sapiens, UniProt O60674, V617F)
T1 construct: their effect on JAK2 protein degradation in SET2 cells; host or cells: SET2 cells (human essential thrombocythemia)
Assay: Western blot quantitation of JAK2 degradation in SET2 cells
Type: cell-based
Conditions: 0.5 μM compound (cells marked **), 8 hours treatment, western blot densitometry vs. DMSO vehicle
Description: Example E. Western Blot Analysis of JAK2 Dependent SET2 Cells Treated with Compounds of the Present Disclosure
SET2 cells (DSMZ, catalog number ACC 608) are isolated from a person with human essential thrombocythemia and carry the JAK2 V617F mutation.
SET2 cells were cultured in RPMI culture medium (Gibco, catalog number 11875085) supplemented with 1% penicillin-streptomycin-glutamine (Thermo Fisher Scientific, catalog number 10378016) and 20% fetal bovine serum (Gibco, catalog number 10438034). Cultured cells were maintained at 37° C., 5% CO2 in the incubator.
Approximately 1,000,000 cells/well were added in 6-well plate containing 1.5 ml culture media with specified concentrations of compounds of the present disclosure or DMSO control. Cells were treated with concentrations of 10 uM, 5 uM, 1 uM, and 0.5 uM. Proteasome inhibitor MG-132 (Cell signaling, catalog number 2194) was added at 20 uM to an additional 10 uM compound treatment. The treatment period was 8 hours. After 8 hours, cells were collected in 1.5 mL microcentrifuge tubes. Tubes were centrifuged at 1500 rpm for 5 min. Supernatant was aspirated and samples were washed with 1 mL of cold PBS. The samples were centrifuged again at 1500 rpm for 5 min, supernatant was aspirated. The sample pellets were lysed using 150 μL of 1× lysing buffer (Cell Signaling Technologies—catalog number 9803S) supplemented with 1× Halt™ Protease and Phosphatase Inhibitor Cocktail (Thermo Fisher Scientific—catalog number 78447). Using Pierce™ BCA Protein Assay Kit (Thermo Fisher Scientific—catalog number 23225), protein concentration of the samples were quantitated. After normalizing sample concentration to approximately 20 ug/well, samples were loaded onto 4-12% Tris-glycine gels. Gels were transferred to nitrocellulose membranes using iBlot 2 Dry Blotting System and iBlot™ 2 Transfer Stacks, nitrocellulose (Thermo Fisher Scientific—catalog number IB23001). Following transfer, membranes were blocked with StartingBlock (Thermo Fisher Scientific—catalog number 37543). After 1 hour of blocking membranes, they were probed for JAK2, pSTAT5, STAT5, CRBN, and GAPDH (Cell Signaling—catalog numbers 3230, 4322, 25656, 71810, and 5174 respectively).
Compounds of the present disclosure were screened at various concentrations to determine their effect on JAK2 protein degradation in SET2 cells, using methods as described above. DMSO was used as the vehicle control with no PROTAC® added. Co-administration of 20 μM of the proteasome inhibitor MG-132 with the PROTAC® compound at its highest concentration (i.e., 5 or 10 μM) tested was conducted to support the hypothesis that the degradation was driven by the ubiquitin-proteosome system (UPS). Degradation was evaluated by western blot densitometry quantitation using the FluorChem M instrument software to analyze the intensity of the JAK2 band signal at various concentrations of PROTAC® compound vs. the JAK2 band signal of the DMSO vehicle. It is noted that ˜82% of JAK2 exists as the V617F mutant, with the remaining 18% of JAK2 being WT. Therefore, if the V617F mutant JAK2 is selectively degraded over the WT, the maximum degradation is ˜80%. Degradation was graded as A: […]; B: ≥40% to <60% degradation; C: ≥20% to <40% degradation, D: <20% to ≥10%; E<10%. ** refers to degradation at 0.5 μM.

T1 sequence (O60674 whole entry V617F): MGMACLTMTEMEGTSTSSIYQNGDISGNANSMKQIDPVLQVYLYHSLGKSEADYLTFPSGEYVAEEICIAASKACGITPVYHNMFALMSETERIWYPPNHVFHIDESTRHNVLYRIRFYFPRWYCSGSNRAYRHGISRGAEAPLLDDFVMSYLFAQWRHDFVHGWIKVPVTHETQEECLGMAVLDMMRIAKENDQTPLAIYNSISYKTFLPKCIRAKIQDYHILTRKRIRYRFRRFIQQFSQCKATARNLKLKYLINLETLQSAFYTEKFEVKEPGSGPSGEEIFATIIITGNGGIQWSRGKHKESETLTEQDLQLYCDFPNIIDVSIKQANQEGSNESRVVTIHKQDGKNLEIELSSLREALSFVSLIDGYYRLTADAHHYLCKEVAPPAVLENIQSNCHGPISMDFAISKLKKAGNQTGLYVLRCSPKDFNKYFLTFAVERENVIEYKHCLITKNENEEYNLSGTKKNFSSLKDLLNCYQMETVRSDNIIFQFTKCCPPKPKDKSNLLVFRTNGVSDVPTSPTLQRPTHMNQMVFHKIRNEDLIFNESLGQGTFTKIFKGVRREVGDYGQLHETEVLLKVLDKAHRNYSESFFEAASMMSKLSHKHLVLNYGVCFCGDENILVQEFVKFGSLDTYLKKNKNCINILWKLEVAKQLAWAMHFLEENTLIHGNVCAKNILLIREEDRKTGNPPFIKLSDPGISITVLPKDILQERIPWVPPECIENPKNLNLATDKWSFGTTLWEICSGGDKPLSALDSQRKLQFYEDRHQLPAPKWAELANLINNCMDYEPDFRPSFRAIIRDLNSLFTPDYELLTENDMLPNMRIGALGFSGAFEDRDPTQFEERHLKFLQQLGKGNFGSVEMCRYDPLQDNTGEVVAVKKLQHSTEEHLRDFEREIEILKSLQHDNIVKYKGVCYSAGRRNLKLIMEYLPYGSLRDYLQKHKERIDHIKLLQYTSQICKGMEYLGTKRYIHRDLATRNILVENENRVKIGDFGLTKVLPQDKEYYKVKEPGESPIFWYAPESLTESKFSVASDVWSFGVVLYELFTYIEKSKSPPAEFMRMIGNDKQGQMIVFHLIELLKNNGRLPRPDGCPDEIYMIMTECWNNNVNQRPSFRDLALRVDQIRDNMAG

Question: With `COC(=O)N[C@@H]1CC[C@@H](n2c(=O)n(C)c3cnc4[nH]c(-c5ccc(C(=O)N6CCC(CN7CCN(c8ccc9c(c8)C(=O)N(C8CCC(=O)NC8=O)C9=O)CC7)CC6)c(F)c5)c(-c5ccc6c(cnn6C(C)C)c5)c4c32)C1` (stereo partly drawn) [Example 32, methyl ((1R,3R)-3-(7-(4-(4-((4-(2-(2,6-dioxopiperidin-3-yl)-1,3-dioxoisoindolin-5-yl)piperazin-1-yl)methyl)piperidine-1-carbonyl)-3-fluorophenyl)-8-(1-isopropyl-1H-indazol-5-yl)-3-methyl-2-oxo-3,6-dihydroimidazo[4,5-d]pyrrolo[2,3-b]pyridin-1(2H)-yl)cyclopentyl) carbamate] as the compound, how does the “JAK2 % Degradation in SET2” value read?
Answer: B** (B: ≥40% to <60% degradation)

Question: Which “JAK2 % Degradation in SET2” value does the source give for `COC(=O)N[C@@H]1CC[C@@H](n2c(=O)n(C)c3cnc4[nH]c(-c5ccc(C(=O)N6CCC(CN7CCN(c8ccc9c(c8)C(=O)N(C8CCC(=O)NC8=O)C9=O)CC7)CC6)cc5)c(-c5ccc6c(cnn6C(C)C)c5)c4c32)C1` (stereo partly drawn) [Example 34, methyl ((1R,3R)-3-(7-(4-(4-((4-(2-(2,6-dioxopiperidin-3-yl)-1,3-dioxoisoindolin-5-yl)piperazin-1-yl)methyl)piperidine-1-carbonyl)phenyl)-8-(1-isopropyl-1H-indazol-5-yl)-3-methyl-2-oxo-3,6-dihydroimidazo[4,5-d]pyrrolo[2,3-b]pyridin-1(2H)-yl)cyclopentyl) carbamate] here?
Answer: A** (A: ≥600% degradation)

Same assay, conditions: 10 μM compound, 8 hours treatment, western blot densitometry vs. DMSO vehicle

Question: How did the “JAK2 % Degradation in SET2” value turn out when `COC(=O)N[C@@H]1CC[C@@H](n2c(=O)n(C)c3cnc4[nH]c(-c5ccc(C(=O)N6CCC(CN7CCN(c8cccc9c8C(=O)N(C8CCC(=O)NC8=O)C9=O)CC7)CC6)c(F)c5)c(-c5ccc6c(cnn6C(C)C)c5)c4c32)C1` (stereo partly drawn) [Example 1, Methyl((1R,3R)-3-(7-(4-(4-((4-(2-(2,6-dioxopiperidin-3-yl)-1,3-dioxoisoindolin-4-yl)piperazin-1-yl)methyl)piperidine-1-carbonyl)-3-fluorophenyl)-8-(1-isopropyl-1H-indazol-5-yl)-3-methyl-2-oxo-3,6-dihydroimidazo[4,5-d]pyrrolo[2,3-b]pyridin-1(2H)-yl)cyclopentyl)carbamate] was run?
Answer: A (A: ≥600% degradation)

Question: How did the “JAK2 % Degradation in SET2” value turn out when `COC(=O)N[C@@H]1CC[C@@H](n2c(=O)n(C)c3cnc4[nH]c(-c5ccc(C(=O)NCCOCCOCC(=O)N[C@H](C(=O)N6C[C@H](O)C[C@H]6C(=O)NCc6ccc(-c7scnc7C)cc6)C(C)(C)C)c(F)c5)c(-c5ccc6c(cnn6C(C)C)c5)c4c32)C1` [Example 14, methyl ((1R,3R)-3-(7-(3-fluoro-4-((2-(2-(2-(((S)-1-((2S,4R)-4-hydroxy-2-((4-(4-methylthiazol-5-yl)benzyl)carbamoyl)pyrrolidin-1-yl)-3,3-dimethyl-1-oxobutan-2-yl)amino)-2-oxoethoxy)ethoxy)ethyl)carbamoyl)phenyl)-8-(1-isopropyl-1H-indazol-5-yl)-3-methyl-2-oxo-3,6-dihydroimidazo[4,5-d]pyrrolo[2,3-b]pyridin-1(2H)-yl)cyclopentyl) carbamate] was run?
Answer: C (C: ≥20% to <40% degradation)

Question: `COC(=O)N[C@@H]1CC[C@@H](n2c(=O)n(C)c3cnc4[nH]c(-c5ccc(C(=O)NCCOCC(=O)Nc6ccc7c(c6)CN(C6CCC(=O)NC6=O)C7=O)c(F)c5)c(-c5ccc6c(cnn6C(C)C)c5)c4c32)C1` (stereo partly drawn) [Example 17, methyl ((1R,3R)-3-(7-(4-((2-(2-((2-(2,6-dioxopiperidin-3-yl)-1-oxoisoindolin-5-yl)amino)-2-oxoethoxy)ethyl)carbamoyl)-3-fluorophenyl)-8-(1-isopropyl-1H-indazol-5-yl)-3-methyl-2-oxo-3,6-dihydroimidazo[4,5-d]pyrrolo[2,3-b]pyridin-1(2H)-yl)cyclopentyl) carbamate] was tested. Which “JAK2 % Degradation in SET2” value did it give?
Answer: E (E<10%)

Question: Which “JAK2 % Degradation in SET2” value does the source give for `COC(=O)N[C@@H]1CC[C@@H](n2c(=O)n(C)c3cnc4[nH]c(-c5ccc(C(=O)NCCOCC(=O)Nc6cccc7c6CN(C6CCC(=O)NC6=O)C7=O)c(F)c5)c(-c5ccc6c(cnn6C(C)C)c5)c4c32)C1` (stereo partly drawn) [Example 24, methyl ((1R,3R)-3-(7-(4-((2-(2-((2-(2,6-dioxopiperidin-3-yl)-1-oxoisoindolin-4-yl)amino)-2-oxoethoxy)ethyl)carbamoyl)-3-fluorophenyl)-8-(1-isopropyl-1H-indazol-5-yl)-3-methyl-2-oxo-3,6-dihydroimidazo[4,5-d]pyrrolo[2,3-b]pyridin-1(2H)-yl)cyclopentyl) carbamate] here?
Answer: C (C: ≥20% to <40% degradation)

Question: How did the “JAK2 % Degradation in SET2” value turn out when `COC(=O)N[C@@H]1CC[C@@H](n2c(=O)n(C)c3cnc4[nH]c(-c5ccc(C(=O)N(C)CCOCC(=O)Nc6ccc7c(c6)CN(C6CCC(=O)NC6=O)C7=O)c(F)c5)c(-c5ccc6c(cnn6C(C)C)c5)c4c32)C1` (stereo partly drawn) [Example 27, methyl ((1R,3R)-3-(7-(4-((2-(2-((2-(2,6-dioxopiperidin-3-yl)-1-oxoisoindolin-5-yl)amino)-2-oxoethoxy)ethyl)(methyl)carbamoyl)-3-fluorophenyl)-8-(1-isopropyl-1H-indazol-5-yl)-3-methyl-2-oxo-3,6-dihydroimidazo[4,5-d]pyrrolo[2,3-b]pyridin-1(2H)-yl)cyclopentyl) carbamate] was run?
Answer: D (D: <20% to ≥10%)

Question: For `COC(=O)N[C@@H]1CC[C@@H](n2c(=O)n(C)c3cnc4[nH]c(-c5ccc(C(=O)N6CCC(CN7CCN(c8cccc9c8C(=O)N(C8CCC(=O)NC8=O)C9=O)CC7)CC6)c(OC)c5)c(-c5ccc6c(cnn6C(C)C)c5)c4c32)C1` (stereo partly drawn) [Example 28, methyl ((1R,3R)-3-(7-(4-(4-((4-(2-(2,6-dioxopiperidin-3-yl)-1,3-dioxoisoindolin-4-yl)piperazin-1-yl)methyl)piperidine-1-carbonyl)-3-methoxyphenyl)-8-(1-isopropyl-1H-indazol-5-yl)-3-methyl-2-oxo-3,6-dihydroimidazo[4,5-d]pyrrolo[2,3-b]pyridin-1(2H)-yl)cyclopentyl) carbamate], which “JAK2 % Degradation in SET2” value is on record?
Answer: B (B: ≥40% to <60% degradation)

Question: With `CCNC(=O)[C@H](Cc1ccc(F)cc1)NC(=O)[C@@H]1CCCN1C(=O)[C@@H](NC(=O)[C@H](C)NCCOCCNC(=O)c1ccc(-c2[nH]c3ncc4c(c3c2-c2ccc3c(cnn3C(C)C)c2)n([C@@H]2CC[C@@H](NC(=O)OC)C2)c(=O)n4C)cc1F)C1CCCCC1` [Example 31, methyl ((1R,3R)-3-(7-(4-((2-(2-(((S)-1-(((S)-1-cyclohexyl-2-((S)-2-(((S)-1-(ethylamino)-3-(4-fluorophenyl)-1-oxopropan-2-yl)carbamoyl)pyrrolidin-1-yl)-2-oxoethyl)amino)-1-oxopropan-2-yl)amino)ethoxy)ethyl)carbamoyl)-3-fluorophenyl)-8-(1-isopropyl-1H-indazol-5-yl)-3-methyl-2-oxo-3,6-dihydroimidazo[4,5-d]pyrrolo[2,3-b]pyridin-1(2H)-yl)cyclopentyl) carbamate] as the compound, how does the “JAK2 % Degradation in SET2” value read?
Answer: C (C: ≥20% to <40% degradation)

Question: Which “JAK2 % Degradation in SET2” value does the source give for `COC(=O)N[C@@H]1CC[C@@H](n2c(=O)n(C)c3cnc4[nH]c(-c5ccc(C(=O)N6CCC(CN7CCN(c8cccc9c8C(=O)N(C8CCC(=O)NC8=O)C9=O)CC7)CC6)cc5)c(-c5ccc6c(cnn6C(C)C)c5)c4c32)C1` (stereo partly drawn) [Example 33, methyl ((1R,3R)-3-(7-(4-(4-((4-(2-(2,6-dioxopiperidin-3-yl)-1,3-dioxoisoindolin-4-yl)piperazin-1-yl)methyl)piperidine-1-carbonyl)phenyl)-8-(1-isopropyl-1H-indazol-5-yl)-3-methyl-2-oxo-3,6-dihydroimidazo[4,5-d]pyrrolo[2,3-b]pyridin-1(2H)-yl)cyclopentyl) carbamate] here?
Answer: A (A: ≥600% degradation)
